12 compounds from patent US11325889B2, “Substituted 3-((3-aminophenyl)amino)piperidine-2,6-dione compounds, compositions thereof, and methods of treatment therewith” (Celgene Corporation, priority 2018, dated 2022) can be followed below.

Molecules are shown by their SMILES.

This assay concerns the target T1, AR protein in VCaP cells (Homo sapiens, UniProt P10275).
T1 construct: endogenous in cells; host or cells: VCaP cells
T1 sequence (P10275 1-920): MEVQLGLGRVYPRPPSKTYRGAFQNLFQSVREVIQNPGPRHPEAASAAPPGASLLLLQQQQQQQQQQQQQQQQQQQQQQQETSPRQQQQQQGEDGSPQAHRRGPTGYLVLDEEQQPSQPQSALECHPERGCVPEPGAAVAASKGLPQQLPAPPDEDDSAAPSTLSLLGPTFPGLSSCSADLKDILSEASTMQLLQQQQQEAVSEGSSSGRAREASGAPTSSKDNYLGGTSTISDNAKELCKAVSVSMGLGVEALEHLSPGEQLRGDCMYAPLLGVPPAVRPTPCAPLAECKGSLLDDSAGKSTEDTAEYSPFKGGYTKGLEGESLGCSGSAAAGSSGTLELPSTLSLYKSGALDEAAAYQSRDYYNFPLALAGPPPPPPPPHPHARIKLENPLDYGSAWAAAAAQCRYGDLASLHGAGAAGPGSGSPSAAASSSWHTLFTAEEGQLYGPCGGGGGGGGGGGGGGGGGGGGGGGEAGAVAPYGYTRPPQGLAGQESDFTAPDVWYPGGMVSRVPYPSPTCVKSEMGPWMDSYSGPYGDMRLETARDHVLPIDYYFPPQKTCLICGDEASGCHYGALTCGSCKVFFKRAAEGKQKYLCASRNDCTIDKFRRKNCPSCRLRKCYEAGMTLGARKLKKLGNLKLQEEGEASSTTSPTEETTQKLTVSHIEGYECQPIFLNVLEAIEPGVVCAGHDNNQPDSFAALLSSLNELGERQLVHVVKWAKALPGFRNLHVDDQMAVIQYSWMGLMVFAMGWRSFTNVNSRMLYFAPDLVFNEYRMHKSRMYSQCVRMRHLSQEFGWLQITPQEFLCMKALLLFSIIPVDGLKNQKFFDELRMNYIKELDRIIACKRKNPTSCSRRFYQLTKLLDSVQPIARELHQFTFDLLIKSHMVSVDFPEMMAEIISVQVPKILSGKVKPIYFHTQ
Put plainly: VCAP AR Degradation Assay (AR ELISA, 24 h). Format: cell-based. Particulars: for Y (lowest measured AR level normalized to DMSO control): AR degradation efficiency; for DC50: concentration of compound when AR level = 50% of DMSO control, read-out: DC50. As to the method: VCAP AR Degradation Assay.
Test compounds were pre-dispensed into a Corning CellBind 96-well clear bottom plate (Cat #3300) using an acoustic dispenser to make a 10-point concentration series at 1:3 dilution for each compound. The final top concentration of each compound was […]. DMSO at a final concentration of 0.1% was used as a control. VCaP cells cultured in DMEM with 8% fetal bovine serum (FBS) were seeded at 50K cells per well in a 200 μL volume into the compound plate and incubated at 37° C. in a CO2 incubator for 24 h. The medium was carefully removed from the cells and the plate was placed on ice. One hundred […] of ice-cold 1× cell lysis buffer from Cell Signaling Technologies (Cat #9803) was added to each well of the cells and the plate was incubated at 4° C. on a shaker for 1 h. Fifteen […] of cell lysate was used for AR ELISA detection using a PathScan Total Sandwich AR ELISA kit (Cell Signaling Technology, Cat #12580). AR levels in compound-treated wells were normalized to that of DMSO control and expressed as percent of control (PoC) (y). A Four Parameter Logistic Model (Sigmoidal Dose-Response Model) was used to determine the compound's DC50, and EC50, using the following equation: y=(A+((B−A)/(1+((C/x)^D)))) • A=YMin (lowest AR level normalized to DMSO control in response to compound • treatment, as determined by curve fit) • B=YMax (maximum AR level as determined by curve fit) • C=EC50 • D=Hill Slope • x=compound concentration • EC50=the concentration of compound when y=(YMax−YMin)/2 • DC50=the concentration of the compound when y=50% of DMSO control (50% AR degradation) • y=AR protein level normalized to DMSO control
The lowest measured AR level normalized to DMSO control in response to compound treatment, termed Y value, was used to characterize the compound-mediated AR degradation efficiency.

The DC50 is the concentration giving 50% degradation. With `CCc1cc(N2C(=S)N(c3ccc(C#N)c(C(F)(F)F)c3)C(=O)C23CCC3)ccc1OCCC1CCN([C@@H](C)C(=O)Nc2cc(NC3CCC(=O)NC3=O)ccc2F)CC1` (stereo partly drawn) [Cmpd 74, (2S)-2-(4-(2-(4-(7-(4-cyano-3-(trifluoromethyl)phenyl)-8-oxo-6-thioxo-5,7-diazaspiro[3.4]octan-5-yl)-2-ethylphenoxy)ethyl)piperidin-1-yl)-N-(5-(2,6-dioxopiperidin-3-ylamino)-2-fluorophenyl)propanamide], the “Y (lowest measured AR level normalized to DMSO control)” value is on record as “** (25%<Y<=35%)” and the DC50 is 100 to 500 nM.
The matching figures for `CCc1cc(N2C(=S)N(c3cnc(C#N)c(C(F)(F)F)c3)C(=O)C2(C)C)ccc1OCCC1CCN([C@@H](C)C(=O)Nc2cc(Cl)cc(NC3CCC(=O)NC3=O)c2)CC1` (stereo partly drawn) [Cmpd 23, (2S)-N-(3-chloro-5-(2,6-dioxopiperidin-3-ylamino)phenyl)-2-(4-(2-(4-(3-(6-cyano-5-(trifluoromethyl)pyridin-3-yl)-5,5-dimethyl-4-oxo-2-thioxoimidazolidin-1-yl)-2-ethylphenoxy)ethyl)piperidin-1-yl)propanamide]: “* (0<Y<=25%)” and < 100 nM.
The corresponding values for `CC1(C)C(=O)N(c2cnc(C#N)c(C(F)(F)F)c2)C(=S)N1c1ccc(OCCC2CCN(CC(=O)Nc3cccc(NC4CCC(=O)NC4=O)c3)CC2)c(CCF)c1` (stereo not drawn) [Cmpd 58, 2-(4-(2-(4-(3-(6-cyano-5-(trifluoromethyl)pyridin-3-yl)-5,5-dimethyl-4-pxo-2-thioxoimidazolidin-1-yl)-2-(2-fluoroethyl)phenoxy)ethyl)piperidin-1-yl)-N-(3-(2,6-dioxopiperidin-3-ylamino)phenyl)acetamide] are “* (0<Y<=25%)” and < 100 nM.
The matching figures for `CC1(C)C(=O)N(c2cnc(C#N)c(C(F)(F)F)c2)C(=S)N1c1ccc(OCC2CCN(CC(=O)Nc3cccc(NC4CCC(=O)NC4=O)c3)CC2)cc1` (stereo not drawn) [Cmpd 6, 2-(4-((4-(3-(6-cyano-5-(trifluoromethyl)pyridin-3-yl)-5,5-dimethyl-4-oxo-2-thioxoimidazolidin-1-yl)phenoxy)methyl)piperidin-1-yl)-N-(3-(2,6-dioxopiperidin-3-ylamino)phenyl)acetamide]: “** (25%<Y<=35%)” and 100 to 500 nM.
Regarding `CCc1cc(N2C(=S)N(c3cnc(C#N)c(C(F)(F)F)c3)C(=O)C2(C)C)ccc1OCC[C@H]1CCN(CC(=O)Nc2cccc(NC3CCC(=O)NC3=O)c2)[C@H](C)C1` (stereo partly drawn) [Cmpd 76, 2-((2R,4S)-4-(2-(4-(3-(6-cyano-5-(trifluoromethyl)pyridin-3-yl)-5,5-dimethyl-4-oxo-2-thioxoimidazolidin-1-yl)-2-ethylphenoxy)ethyl)-2-methylpiperidin-1-yl)-N-(3-(2,6-dioxopiperidin-3-ylamino)phenyl)acetamide], the “Y (lowest measured AR level normalized to DMSO control)” value is “* (0<Y<=25%)” and the DC50 was < 100 nM.
For the compound `CCc1cc(N2C(=S)N(c3ccc(C#N)c(C(F)(F)F)c3)C(=O)C2(C)C)ccc1OCC[C@H]1CCN(CC(=O)Nc2cccc(NC3CCC(=O)NC3=O)c2)[C@H](C)C1` (stereo partly drawn) [Cmpd 70, 2-((2R,4S)-4-(2-(4-(3-(4-cyano-3-(trifluoromethyl)phenyl)-5,5-dimethyl-4-oxo-2-thioxoimidazolidin-1-yl)-2-ethylphenoxy)ethyl)-2-methylpiperidin-1-yl)-N-(3-(2,6-dioxopiperidin-3-ylamino)phenyl)acetamide], the “Y (lowest measured AR level normalized to DMSO control)” value is “* (0<Y<=25%)” and the DC50 was < 100 nM.
The corresponding values for `CCc1cc(N2C(=S)N(c3ccc(C#N)c(C(F)(F)F)c3)C(=O)C2(C)C)ccc1OCCC1CCN(CC(=O)Nc2cc(F)cc(NC3CCC(=O)NC3=O)c2)CC1` (stereo not drawn) [Cmpd 19, 2-(4-(2-(4-(3-(4-cyano-3-(trifluoromethyl)phenyl)-5,5-dimethyl-4-oxo-2-thioxoimidazolidin-1-yl)-2-ethylphenoxy)ethyl)piperidin-1-yl)-N-(3-(2,6-dioxopiperidin-3-ylamino)-5-fluorophenyl)acetamide] are “* (0<Y<=25%)” and 100 to 500 nM.
The corresponding values for `CCc1cc(N2C(=S)N(c3ccc(C#N)c(C(F)(F)F)c3)C(=O)C2(C)C)ccc1OCCC1CCN([C@@H](C)C(=O)Nc2cc(Cl)cc(NC3CCC(=O)NC3=O)c2)CC1` (stereo partly drawn) [Cmpd 26, (2S)-N-(3-chloro-5-(2,6-dioxopiperidin-3-ylamino)phenyl)-2-(4-(2-(4-(3-(4-cyano-3-(trifluoromethyl)phenyl)-5,5-dimethyl-4-oxo-2-thioxoimidazolidin-1-yl)-2-ethylphenoxy)ethyl)piperidin-1-yl)propanamide] are “* (0<Y<=25%)” and 100 to 500 nM.
On to `CCc1cc(N2C(=S)N(c3cnc(C#N)c(C(F)(F)F)c3)C(=O)C2(C)C)ccc1OCCC1CCN(CC(=O)Nc2cc(Cl)cc(NC3CCC(=O)NC3=O)c2)CC1` (stereo not drawn) [Cmpd 13, N-(3-chloro-5-(2,6-dioxopiperidin-3-ylamino)phenyl)-2-(4-(2-(4-(3-(6-cyano-5-(trifluoromethyl)pyridin-3-yl)-5,5-dimethyl-4-oxo-2-thioxoimidazolidin-1-yl)-2-ethylphenoxy)ethyl)piperidin-1-yl)acetamide], for which the “Y (lowest measured AR level normalized to DMSO control)” value is reported as “* (0<Y<=25%)” and the DC50 is < 100 nM.
The corresponding values for `CCc1cc(N2C(=S)N(c3cnc(C#N)c(C(F)(F)F)c3)C(=O)C2(C)C)ccc1OCC1CCN(CC(=O)Nc2cccc(NC3CCC(=O)NC3=O)c2)CC1` (stereo not drawn) [Cmpd 80, 2-(4-((4-(3-(6-cyano-5-(trifluoromethyl)pyridin-3-yl)-5,5-dimethyl-4-oxo-2-thioxoimidazolidin-1-yl)-2-ethylphenoxy)methyl)piperidin-1-yl)-N-(3-(2,6-dioxopiperidin-3-ylamino)phenyl)acetamide] are “** (25%<Y<=35%)” and < 100 nM.
The corresponding values for `CCc1cc(N2C(=S)N(c3ccc(C#N)c(C(F)(F)F)c3)C(=O)C2(C)C)ccc1OCCC1(F)CCN(CC(=O)Nc2cc(Cl)cc(NC3CCC(=O)NC3=O)c2)CC1` (stereo not drawn) [Cmpd 90, N-(3-chloro-5-(2,6-dioxopiperidin-3-ylamino)phenyl)-2-(4-(2-(4-(3-(4-cyano-3-(trifluoromethyl)phenyl)-5,5-dimethyl-4-oxo-2-thioxoimidazolidin-1-yl)-2-ethylphenoxy)ethyl)-4-fluoropiperidin-1-yl)acetamide] are “* (0<Y<=25%)” and < 100 nM.
The corresponding values for `CCc1cc(N2C(=S)N(c3ccc(C#N)c(C(F)(F)F)c3)C(=O)C2(C)C)cnc1O[C@H]1C[C@@H](C)N(CC(=O)Nc2cccc(NC3CCC(=O)NC3=O)c2)[C@@H](C)C1` (stereo partly drawn) [Cmpd 95, 2-((2R,4r,6S)-4-((5-(3-(4-cyano-3-(trifluoromethyl)phenyl)-5,5-dimethyl-4-oxo-2-thioxoimidazolidin-1-yl)-3-ethylpyridin-2-yl)oxy)-2,6-dimethylpiperidin-1-yl)-N-(3-((2,6-dioxopiperidin-3-yl)amino)phenyl)acetamide] are “** (25%<Y<=35%)” and 500 to 1000 nM.
